From PubChem BioAssay AID248 (DTP/NCI, 2004)
Several values for one entry are separate records, joined by “and”; a condition that tells them apart may be missing. Equal values may be shown once. Inconclusive results and toxic doses are left out. Rule as the data show it: active = T/C of 150% or more; inactive = T/C below 125%.

Tested on: L1210 leukemia ip in BDF1 mice, survival T/C
Assay: NCI In Vivo Anticancer Drug Screen. Data for tumor model L1210 Leukemia (intraperitoneal) in B6D2F1 (BDF1) mice
Conditions: endpoint: mean survival time, higher = longer survival
Summary of the method: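 Antitumor effect is assessed in tumor-bearing animals. Survival in the compound arm is compared with a vehicle-dosed control arm and expressed as their quotient.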

[1] = dose: 100.0 mg/kg/injection, schedule: Q01DX009 (ip), vehicle: Klucel (hydroxypropylcellulose) (HPC)
[2] = dose: 100.0 mg/kg/injection, schedule: Q04DX002 (ip), vehicle: Klucel (hydroxypropylcellulose) (HPC)
[3] = dose: 200.0 mg/kg/injection, schedule: Q01DX009 (ip), vehicle: Klucel (hydroxypropylcellulose) (HPC)
[4] = dose: 200.0 mg/kg/injection, schedule: Q04DX002 (ip), vehicle: Klucel (hydroxypropylcellulose) (HPC)
[5] = dose: 400.0 mg/kg/injection, schedule: Q01DX009 (ip), vehicle: Klucel (hydroxypropylcellulose) (HPC)
[6] = dose: 400.0 mg/kg/injection, schedule: Q04DX002 (ip), vehicle: Klucel (hydroxypropylcellulose) (HPC)
[7] = dose: 100.0 mg/kg/injection, schedule: Q04DX003 (ip), vehicle: Klucel (hydroxypropylcellulose) (HPC)
[8] = dose: 200.0 mg/kg/injection, schedule: Q04DX003 (ip), vehicle: Klucel (hydroxypropylcellulose) (HPC)
[9] = dose: 400.0 mg/kg/injection, schedule: Q04DX003 (ip), vehicle: Klucel (hydroxypropylcellulose) (HPC)
[10] = dose: 100.0 mg/kg/injection, schedule: Q01DX001 (ip), vehicle: Klucel (hydroxypropylcellulose) (HPC)
[11] = dose: 200.0 mg/kg/injection, schedule: Q01DX001 (ip), vehicle: Klucel (hydroxypropylcellulose) (HPC)
[12] = dose: 400.0 mg/kg/injection, schedule: Q01DX001 (ip), vehicle: Klucel (hydroxypropylcellulose) (HPC)
[13] = dose: 100.0 mg/kg/injection, schedule: Q04DX003 (ip), vehicle: saline
[14] = dose: 200.0 mg/kg/injection, schedule: Q04DX003 (ip), vehicle: saline
[15] = dose: 100.0 mg/kg/injection, schedule: Q04DX003 (ip), vehicle: saline with Tween-80
[16] = dose: 400.0 mg/kg/injection, schedule: Q04DX003 (ip), vehicle: saline with Tween-80
[17] = dose: 100.0 mg/kg/injection, schedule: Q01DX001 (ip), vehicle: carboxymethylcellulose (CMC)
[18] = dose: 200.0 mg/kg/injection, schedule: Q01DX001 (ip), vehicle: carboxymethylcellulose (CMC)

Measured: T/C

COC(=O)c1ccccc1-n1c(-c2ccc([N+](=O)[O-])cc2)csc1=NC(=O)c1cccc([N+](=O)[O-])c1
inactive: [1] 91 % of control | [2] 92 % of control | [3] 91 % of control | [4] 95 % of control | [5] 88 % of control | [6] 100 % of control

CCCCOP(=O)(c1ccccc1)N1CCCCC1 (stereo not drawn)
inactive: dose: 25.0 mg/kg/injection, schedule: Q04DX002 (ip), vehicle: saline with Tween-80 103 % of control | dose: 50.0 mg/kg/injection, schedule: Q04DX002 (ip), vehicle: saline with Tween-80 103 % of control | dose: 100.0 mg/kg/injection, schedule: Q04DX002 (ip), vehicle: saline with Tween-80 92 % of control and 107 % of control

Cc1ccc(Cl)cc1NC(=O)c1ccc(Cl)cc1Cl
inactive: [1] 110 % of control | [7] 92 % of control | [3] 91 % of control | [8] 95 % of control | [5] 89 % of control | [9] 88 % of control

CC(=O)NC(CSCc1ccccc1)(SCc1ccccc1)C(=O)O (stereo not drawn)
inactive: [10] 92 % of control | [11] 90 % of control | [12] 92 % of control

CN1CCC2(CC1)SSC1(CCN(C)CC1)S2
inactive: [13] 98 % of control | [14] 98 % of control

CC(C)NC(=O)Oc1cccc(NC(=O)C(C)C)c1
inactive: dose: 25.0 mg/kg/injection, schedule: Q04DX003 (ip), vehicle: saline with Tween-80 101 % of control | dose: 50.0 mg/kg/injection, schedule: Q04DX003 (ip), vehicle: saline with Tween-80 92 % of control | [15] 92 % of control and 95 % of control | [16] 89 % of control

CC(C)=CCC(CCN(C)C)(C(N)=O)c1cccc2ccccc12 (stereo not drawn)
inactive: dose: 5.0 mg/kg/injection, schedule: Q01DX009 (ip), vehicle: Klucel (hydroxypropylcellulose) (HPC) 102 % of control | dose: 5.0 mg/kg/injection, schedule: Q04DX003 (ip), vehicle: Klucel (hydroxypropylcellulose) (HPC) 94 % of control | dose: 10.0 mg/kg/injection, schedule: Q01DX009 (ip), vehicle: Klucel (hydroxypropylcellulose) (HPC) 93 % of control | dose: 10.0 mg/kg/injection, schedule: Q04DX003 (ip), vehicle: Klucel (hydroxypropylcellulose) (HPC) 91 % of control | dose: 20.0 mg/kg/injection, schedule: Q01DX009 (ip), vehicle: Klucel (hydroxypropylcellulose) (HPC) 91 % of control | dose: 20.0 mg/kg/injection, schedule: Q04DX003 (ip), vehicle: Klucel (hydroxypropylcellulose) (HPC) 96 % of control

CCc1c(Cl)nc(N)nc1Cl
inactive: dose: 100.0 mg/kg/injection, schedule: Q01DX Z (ip), vehicle: methylcellulose (MC) 95 % of control | dose: 200.0 mg/kg/injection, schedule: Q01DX Z (ip), vehicle: methylcellulose (MC) 89 % of control

S=C1SCN(C2CCCCCCCCCCC2)CN1C1CCCCCCCCCCC1
inactive: [15] 96 % of control | dose: 200.0 mg/kg/injection, schedule: Q04DX003 (ip), vehicle: saline with Tween-80 91 % of control | [16] 95 % of control

CCOC(=O)Cc1cc(=O)n(C)c2ccccc12
inactive: dose: 100.0 mg/kg/injection, schedule: Q01DX001 (ip), vehicle: other 97 % of control | dose: 200.0 mg/kg/injection, schedule: Q01DX001 (ip), vehicle: other 97 % of control | dose: 400.0 mg/kg/injection, schedule: Q01DX001 (ip), vehicle: other 103 % of control

C(=NCc1ccccc1)C1(c2ccccc2)OC1c1ccccc1 (stereo not drawn)
inactive: [7] 91 % of control | [8] 87 % of control | [9] 88 % of control

CC(=O)OC1CCC2(C)C(CCC3C2CCC2(C)C3CC3OC(CCCC(C)CO)C(C)C32)C1 (stereo not drawn)
inactive: dose: 25.0 mg/kg/injection, schedule: Q01DX001 (ip), vehicle: saline with Tween-80 88 % of control | dose: 50.0 mg/kg/injection, schedule: Q01DX001 (ip), vehicle: saline with Tween-80 98 % of control | dose: 100.0 mg/kg/injection, schedule: Q01DX001 (ip), vehicle: saline with Tween-80 95 % of control | dose: 400.0 mg/kg/injection, schedule: Q01DX001 (ip), vehicle: saline with Tween-80 95 % of control

Cn1c(=O)[nH]c(=O)c2[nH]c(CO)nc21
inactive: [17] 100 % of control | [18] 102 % of control

COc1ccc(/C=C/c2ccc3ccccc3n2)cc1
inactive: [2] 111 % of control | [4] 97 % of control | [6] 105 % of control

O=c1cc(-c2ccccc2)nc2c(Cl)cc(Cl)cn12
inactive: dose: 100.0 mg/kg/injection, schedule: Q04DX003 (ip), vehicle: acetone 95 % of control | dose: 200.0 mg/kg/injection, schedule: Q04DX003 (ip), vehicle: acetone 104 % of control | dose: 400.0 mg/kg/injection, schedule: Q04DX003 (ip), vehicle: acetone 96 % of control

COC(=O)c1sc2ccccc2c1C
inactive: [17] 104 % of control | [18] 98 % of control | dose: 400.0 mg/kg/injection, schedule: Q01DX001 (ip), vehicle: carboxymethylcellulose (CMC) 98 % of control

O=[N+]([O-])CC1c2ccccc2Nc2ccccc21
inactive: dose: 50.0 mg/kg/injection, schedule: Q01DX009 (ip), vehicle: saline with Tween-80 93 % of control | dose: 100.0 mg/kg/injection, schedule: Q01DX009 (ip), vehicle: saline with Tween-80 107 % of control | dose: 200.0 mg/kg/injection, schedule: Q01DX009 (ip), vehicle: saline with Tween-80 100 % of control

NC(CNO)C(=O)O (stereo not drawn)
inactive: dose: 100.0 mg/kg/injection, schedule: Q01DX009 (ip), vehicle: saline 101 % of control | [13] 103 % of control | dose: 200.0 mg/kg/injection, schedule: Q01DX009 (ip), vehicle: saline 103 % of control | [14] 97 % of control | dose: 400.0 mg/kg/injection, schedule: Q01DX009 (ip), vehicle: saline 110 % of control | dose: 400.0 mg/kg/injection, schedule: Q04DX003 (ip), vehicle: saline 111 % of control

Cc1ccc(O)c(-c2ccccc2)c1
inactive: [10] 100 % of control | [11] 100 % of control | [12] 103 % of control
